Source: patent US7300946B2, “N-(substituted arylmethyl)-4-(disubstituted methyl) piperidines and pyridines” (Bayer CropScience AG, priority 2002, dated 2007)

test system: tobacco budworm (Heliothis virescens [Fabricius]); assay: surface-treated diet test against the tobacco budworm; format: in vivo; conditions: tobacco budworm second instar larvae; surface-treated diet; 0.25 millimoles of candidate insecticide on the surface of the diet; five-day exposure; compared to total number of insects infested
Method in brief: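 Wheat germ artificial diet surface-treated with 40 µL of 50 mM DMSO stock diluted 1:7 in 1:1 water/acetone (0.25 millimolar on diet), or sub-multiples for rate tests. One second-instar larva per well, 25° C, 60% RH, 5 days; percent weight inhibition vs DMSO controls and percent mortality.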

Structure (SMILES)	Percent Mortality
CCON=Cc1ccc(CN2CCC(C(OC(=O)Nc3ccc(Cl)cc3)c3ccc(C(F)(F)F)cc3)CC2)cc1 (centres unmarked) [Compound 182]	100%
CCn1nnc(-c2ccc(CN3CCC(C(OC(=O)Nc4ccc(Cl)cc4)c4ccc(-c5ccccc5)cc4)CC3)cc2)n1 (centres unmarked) [Compound 611]	83%
CC(C)OC(=O)c1ccc(CN2CCC(C(OC(=O)Nc3cc(F)cc(F)c3)c3ccc(C(F)(F)F)cc3)CC2)cc1 (centres unmarked) [Compound 493]	100%
O=C(Nc1ccc(F)cc1)OC(c1ccc(C(F)(F)F)cc1)C1CCN(Cc2ccc(-c3csnn3)cc2)CC1 (centres unmarked) [Compound 559]	17%
CNC(=O)Oc1ccc(CN2CCC(C(OC(=O)Nc3ccccc3)c3ccc(C(F)(F)F)cc3)CC2)cc1 (centres unmarked) [Compound 521]	100%
O=C(Nc1cc(Cl)cc(Cl)c1)OC(c1ccc(C(F)(F)F)cc1)C1CCN(Cc2ccc(Oc3ccccn3)cc2)CC1 (centres unmarked) [Compound 232]	100%
Cn1nnc(-c2ccc(CN3CCC(C(NC(=O)Nc4ccccc4Cl)c4ccc(OC(F)(F)F)cc4)CC3)cc2)n1 (centres unmarked) [Compound 334]	100%
CCn1nnc(-c2ccc(CN3CCC(C(OCc4ccc(C(F)(F)F)cc4)c4ccc(OC(F)(F)F)cc4)CC3)cc2)n1 (centres unmarked) [Compound 304]	100%
CN(C(=O)OC(c1ccc(C(F)(F)F)cc1)C1CCN(Cc2ccc(Oc3ccccn3)cc2)CC1)c1ccccc1 (centres unmarked) [Compound 658]	0%
CCON=Cc1ccc(CN2CCC(C(OC(=O)Nc3cc(F)cc(F)c3)c3ccc(OC(F)(F)F)cc3)CC2)cc1 (centres unmarked) [Compound 538]	100%
O=C(Oc1ccccc1)OC(c1ccc(C(F)(F)F)cc1)C1CCN(Cc2ccc(Oc3ccccn3)cc2)CC1 (centres unmarked) [Compound 661]	0%
CCn1nnc(-c2ccc(CN3CCC(C(OC(=O)Nc4ccc(Cl)c(Cl)c4)c4ccc(Oc5ccccc5)cc4)CC3)cc2)n1 (centres unmarked) [Compound 617]	0%
CC(C)OC(=O)Nc1ccc(CN2CCC(C(OC(=O)Nc3ccc(Cl)cc3)c3cc(Cl)cc(Cl)c3)CC2)cc1 (centres unmarked) [Compound 508]	100%
O=C(Nc1ccc(-c2ccccc2)cc1)OC(c1ccc(C(F)(F)F)cc1)C1CCN(Cc2ccc(Oc3ccccn3)cc2)CC1 (centres unmarked) [Compound 250]	100%
CC(C)OC(=O)Nc1ccc(CN2CCC(C(OC(=O)Nc3cccc(F)c3)c3ccc(F)cc3)CC2)cc1 (centres unmarked) [Compound 504]	100%
CCON=Cc1ccc(CN2CCC(C(OC(=O)Nc3ccc(F)cc3F)c3ccc(C(F)(F)F)cc3)CC2)cc1 (centres unmarked) [Compound 193]	100%
Cn1nnc(-c2ccc(CN3CCC(C(NCc4cccc(F)c4)c4ccc(OC(F)(F)F)cc4)CC3)cc2)n1 (centres unmarked) [Compound 314]	100%
FC(F)(F)c1ccc(C(Oc2ccc(C(F)(F)F)cn2)C2CCN(Cc3ccc(Oc4ccc(Cl)nn4)cc3)CC2)cc1 (centres unmarked) [Compound 440]	100%
Cn1nnc(-c2ccc(CN3CCC(C(NC(=O)Oc4cccc(Cl)c4)c4ccc(OC(F)(F)F)cc4)CC3)cc2)n1 (centres unmarked) [Compound 348]	100%
COc1ccc(CNC(c2ccc(OC(F)(F)F)cc2)C2CCN(Cc3ccc(-c4nnn(C)n4)cc3)CC2)cc1 (centres unmarked) [Compound 318]	100%
Cn1nnc(-c2ccc(CN3CCC(C(NCc4ccc(I)cc4)c4ccc(OC(F)(F)F)cc4)CC3)cc2)n1 (centres unmarked) [Compound 316]	50%
Cn1nnc(-c2ccc(CN3CCC(C(NC(=O)Oc4ccc(Cl)cc4)c4ccc(OC(F)(F)F)cc4)CC3)cc2)n1 (centres unmarked) [Compound 349]	100%
Cn1nnc(-c2ccc(CN3CCC(C(NC(=O)Nc4ccc(F)cc4)c4ccc(OC(F)(F)F)cc4)CC3)cc2)n1 (centres unmarked) [Compound 340]	83%
CCn1nnc(-c2ccc(CN3CCC(C(OC(=O)Nc4ccc(C(F)(F)F)cc4)c4cc(Cl)cc(Cl)c4)CC3)cc2)n1 (centres unmarked) [Compound 581]	100%
FC(F)(F)c1ccc(OC(c2ccc(C(F)(F)F)cc2)C2CCN(Cc3ccc(Oc4ccccn4)cc3)CC2)cc1 (centres unmarked) [Compound 455]	100%

same assay, conditions: tobacco budworm second instar larvae; surface-treated diet; 0.25 millimoles of candidate insecticide on the surface of the diet; five-day exposure; inhibition of insect weight relative to untreated controls

Structure (SMILES)	Percent Growth Inhibition
CCON=Cc1ccc(CN2CCC(C(OC(=O)Nc3ccc(Cl)cc3)c3ccc(C(F)(F)F)cc3)CC2)cc1 (centres unmarked) [Compound 182]	100%
CCn1nnc(-c2ccc(CN3CCC(C(OC(=O)Nc4ccc(Cl)cc4)c4ccc(-c5ccccc5)cc4)CC3)cc2)n1 (centres unmarked) [Compound 611]	100%
CC(C)OC(=O)c1ccc(CN2CCC(C(OC(=O)Nc3cc(F)cc(F)c3)c3ccc(C(F)(F)F)cc3)CC2)cc1 (centres unmarked) [Compound 493]	100%
O=C(Nc1ccc(F)cc1)OC(c1ccc(C(F)(F)F)cc1)C1CCN(Cc2ccc(-c3csnn3)cc2)CC1 (centres unmarked) [Compound 559]	97%
CNC(=O)Oc1ccc(CN2CCC(C(OC(=O)Nc3ccccc3)c3ccc(C(F)(F)F)cc3)CC2)cc1 (centres unmarked) [Compound 521]	100%
O=C(Nc1cc(Cl)cc(Cl)c1)OC(c1ccc(C(F)(F)F)cc1)C1CCN(Cc2ccc(Oc3ccccn3)cc2)CC1 (centres unmarked) [Compound 232]	100%
Cn1nnc(-c2ccc(CN3CCC(C(NC(=O)Nc4ccccc4Cl)c4ccc(OC(F)(F)F)cc4)CC3)cc2)n1 (centres unmarked) [Compound 334]	100%
CCn1nnc(-c2ccc(CN3CCC(C(OCc4ccc(C(F)(F)F)cc4)c4ccc(OC(F)(F)F)cc4)CC3)cc2)n1 (centres unmarked) [Compound 304]	95%
CN(C(=O)OC(c1ccc(C(F)(F)F)cc1)C1CCN(Cc2ccc(Oc3ccccn3)cc2)CC1)c1ccccc1 (centres unmarked) [Compound 658]	100%
CCON=Cc1ccc(CN2CCC(C(OC(=O)Nc3cc(F)cc(F)c3)c3ccc(OC(F)(F)F)cc3)CC2)cc1 (centres unmarked) [Compound 538]	100%
O=C(Oc1ccccc1)OC(c1ccc(C(F)(F)F)cc1)C1CCN(Cc2ccc(Oc3ccccn3)cc2)CC1 (centres unmarked) [Compound 661]	91%
CCn1nnc(-c2ccc(CN3CCC(C(OC(=O)Nc4ccc(Cl)c(Cl)c4)c4ccc(Oc5ccccc5)cc4)CC3)cc2)n1 (centres unmarked) [Compound 617]	14%
CC(C)OC(=O)Nc1ccc(CN2CCC(C(OC(=O)Nc3ccc(Cl)cc3)c3cc(Cl)cc(Cl)c3)CC2)cc1 (centres unmarked) [Compound 508]	100%
O=C(Nc1ccc(-c2ccccc2)cc1)OC(c1ccc(C(F)(F)F)cc1)C1CCN(Cc2ccc(Oc3ccccn3)cc2)CC1 (centres unmarked) [Compound 250]	100%
CC(C)OC(=O)Nc1ccc(CN2CCC(C(OC(=O)Nc3cccc(F)c3)c3ccc(F)cc3)CC2)cc1 (centres unmarked) [Compound 504]	100%
CCON=Cc1ccc(CN2CCC(C(OC(=O)Nc3ccc(F)cc3F)c3ccc(C(F)(F)F)cc3)CC2)cc1 (centres unmarked) [Compound 193]	100%
Cn1nnc(-c2ccc(CN3CCC(C(NCc4cccc(F)c4)c4ccc(OC(F)(F)F)cc4)CC3)cc2)n1 (centres unmarked) [Compound 314]	100%
FC(F)(F)c1ccc(C(Oc2ccc(C(F)(F)F)cn2)C2CCN(Cc3ccc(Oc4ccc(Cl)nn4)cc3)CC2)cc1 (centres unmarked) [Compound 440]	100%
Cn1nnc(-c2ccc(CN3CCC(C(NC(=O)Oc4cccc(Cl)c4)c4ccc(OC(F)(F)F)cc4)CC3)cc2)n1 (centres unmarked) [Compound 348]	100%
COc1ccc(CNC(c2ccc(OC(F)(F)F)cc2)C2CCN(Cc3ccc(-c4nnn(C)n4)cc3)CC2)cc1 (centres unmarked) [Compound 318]	100%
Cn1nnc(-c2ccc(CN3CCC(C(NCc4ccc(I)cc4)c4ccc(OC(F)(F)F)cc4)CC3)cc2)n1 (centres unmarked) [Compound 316]	100%
Cn1nnc(-c2ccc(CN3CCC(C(NC(=O)Oc4ccc(Cl)cc4)c4ccc(OC(F)(F)F)cc4)CC3)cc2)n1 (centres unmarked) [Compound 349]	100%
Cn1nnc(-c2ccc(CN3CCC(C(NC(=O)Nc4ccc(F)cc4)c4ccc(OC(F)(F)F)cc4)CC3)cc2)n1 (centres unmarked) [Compound 340]	100%
CCn1nnc(-c2ccc(CN3CCC(C(OC(=O)Nc4ccc(C(F)(F)F)cc4)c4cc(Cl)cc(Cl)c4)CC3)cc2)n1 (centres unmarked) [Compound 581]	100%
FC(F)(F)c1ccc(OC(c2ccc(C(F)(F)F)cc2)C2CCN(Cc3ccc(Oc4ccccn4)cc3)CC2)cc1 (centres unmarked) [Compound 455]	100%
